Where a name gives a salt, the structure may show the parent alone.

Data set [1] has as its system multiple myeloma cell line U266B1. As to the kind of experiment: U266 Cell Viability Assay. The data set is classed as cell-based, human. The conditions noted are these: Homo sapiens, U-266; 48 hr, U266; read-out: 48 hr U266 Viability Celltiter-Glo: Mean EC50. The procedure:
(§1) The human multiple myeloma cell line U266B1 was cultured in RPMI 1640 media supplemented with 10% fetal bovine serum, 2 mM Glutamine, and 1× Penicillin/Streptomycin. Cells were plated in 384-well tissue culture plates and treated with compound dilutions in DMSO/media. Plates were incubated at 37° C., 5% CO2 for 48 hours. After 48 hours, Celltiter-Glo® (Promega) was added to each well and luciferase signal was quantified using Tecan Infinite M1000 Pro for cell viability determination.
For chemical structures that include one or more stereoisomers, but are illustrated without indicating stereochemistry, the assay data refers to a mixture of stereoisomers
(In general: ATP-based viability assays read luminescence as a measure of living cells.)

Data set [2] can be described thus: In Vitro Microsome Stability Assay (monkey). The data set is classed as in vitro ADME. The conditions noted are these: monkey, 30 min, NADPH. The procedure: (§2) Potassium phosphate (423 μL of a 0.1 M solution) was added to 8-strip deep well tubes followed by human, mouse, rat, or monkey microsomes (25 μL of a 20 mg/mL solution). The tubes were then placed on ice and the test article (2 μL of a 0.25 mM solution in DMSO) was added. The mixture was preincubated at 37° C. for 3 to 5 minutes (shaking at 150 rpm) then the reaction was initiated by adding 50 μL NADPH. An aliquot of samples (100 μL) were collected at 0 and 30 min and 200 μL of an acetonitrile mixture containing IS (compound 914) was added to quench the reaction. After centrifuging for 10 min at 4000 rpm, a mixed solution of the 20 μL of the supernatant (20 μL) plus 100 μL ACN/H2O (1:1) were injected for LC-MS/MS analysis. Liver microsome stability is assessed by the % remaining of compound at 30 min which is calculated using the following equation: [(AUCanalyteT=30/AUCIS)/(AUCanalyteT=0/AUCIS)]*100
(§3) For chemical structures that include one or more stereoisomers, but are illustrated without indicating stereochemistry, the assay data refers to a mixture of stereoisomers.

Data set [3] is described as follows: In Vitro Microsome Stability Assay (rat). It is filed as in vitro ADME. The following applies: rat, 30 min, NADPH. On the procedure:
as §2, §3

Data set [4] can be described thus: In Vitro Microsome Stability Assay (mouse). The data set is classed as in vitro ADME. The following applies: mouse, 30 min, NADPH. On the procedure: as §2, §3
The test system of data set [5] is full length TNFα (amino acids 1-233) fused to Gaussia Luciferase. The data set is described as follows: Dox Induced TNFα-FL-Gluc Assay. The data set is classed as cell-based. The conditions noted are these: 24 hr, 293FRT/TO; read-out: 24 hr Dox Inducible TNFaFLGluc 293FRT/TO: Mean IC50.
Excerpt: (§4) FIp-In 293 T-REx™ cells were transfected with pcDNA™5/FRT/TO plasmid inserted with cDNA encoding Gaussia Luciferase fused to the 3′ end of cDNA encoding full length TNFα (amino acids 1-233). Transfected cells were selected for resistance to the selectable markers Hygromycin and Blasticidin to create a stable cell line that contained the TNFα-FL/Gaussia Luciferase cDNA insert whose expression was regulated under the T-REx™ system. The day before assay, cells were trypsinized and plated in 384-well tissue culture plates. The next day, compound dilutions in DMSO/media containing doxycycline were added to the wells and incubated at 37° C., 5% CO2.
as §3

Data set [6] relates to multiple myeloma cell line NCl-H929. As to the kind of experiment: H929 Cell Viability Assay. The data set is classed as cell-based, human. The following applies: Homo sapiens, NCI-H929, 48 h, H929, read-out: 48 hr H929 Viability Celltiter-Glo: Mean EC50. On the procedure: as §1, with “NCl-H929” for “U266B1”, “cultured in Advanced RPMI 1640 media (Gibco®) supplemented with 6% fetal bovine serum, 2 mM Glutamine, and 1× Penicillin/Streptomycin. On the day of assay, cells were resuspended” for “cultured”, “Penicillin/Streptmycin and” for “Penicillin/Streptomycin. Cells were”
as §3

Data set [7] has as its system PD1 signal sequence plus 10 amino acids fused to Gaussia Luciferase (PD1-ss+10aa/Gaussia Luciferase). As to the kind of experiment: Dox Induced PD1-ss-Gluc Assay. It is filed as cell-based. The conditions noted are these: 24 hr, 293FRT/TO; read-out: 24 hr Dox Inducible PD1ssGluc 293FRT/TO: Mean IC50.
Excerpt: as §4, with “PD1 signal sequence plus 10 amino” for “full length TNFα (amino”, “(N-[…]-C) (SEQ ID NO: 1).” for “1-233).”, “PD1-ss+10aa/Gaussia” for “TNFα-FL/Gaussia”
as §3

A short description of data set [8]: In Vitro Microsome Stability Assay (human). It is filed as in vitro ADME. The conditions noted are these: human, 30 min, NADPH. On the procedure:
as §2, §3

Usually EC50 stands for the concentration that produces a half-maximal response. For the compound `C=C1CN(S(=O)(=O)c2ccc(N(C)C)cc2)CCCN(CC2CCCCC2)CCCN(S(=O)(=O)N2CC=C(C3=CCCC3)CC2)C1` [A67, 4-{[9-(cyclohexylmethyl)-5-{[4-(cyclopent-1-en-1-yl)-1,2,3,6-tetrahydropyridin-1-yl]sulfonyl}-3-methylidene-1,5,9-triazacyclododecan-1-yl]sulfonyl}-N,N-dimethylaniline], the results for the EC50 in data set [1] and in data set [6] were above 25000 nM and 2400 nM, respectively. Further, the “Liver Microsome Stability-% Left after 30 min w/ NADPH (%) Monkey” value (from here on “Liver Microsome Stability-% Left … (%) Monkey”) in data set [2] came to 27.6%. Moreover, the “Liver Microsome Stability-% Left after 30 min w/ NADPH (%) Rat” value (“Liver Microsome Stability-% Left … (%) Rat” below) in data set [3] is 45.4%. Also, the “Liver Microsome Stability-% Left after 30 min w/ NADPH (%) Mouse” value (“Liver Microsome Stability-% Left … (%) Mouse” below) in data set [4] is given as 28%. Further, the IC50 in data set [5] turned out to be 937 nM; in data set [7] it was 40.8 nM. For the same compound, the “Liver Microsome Stability-% Left after 30 min w/ NADPH (%) Human” value (from here on “Liver Microsome Stability-% Left … (%) Human”) in data set [8] was 33.2%.
Turning to `CC1CN(S(=O)(=O)c2ccc(N(C)C)cc2)CCCN(CC2CCCCC2)CCCN(S(=O)(=O)N2CCC(c3ccccc3)CC2)C1` (stereo not shown) [A44, 4-{[9-(cyclohexylmethyl)-3-methyl-5-[(4-phenylpiperidin-1-yl)sulfonyl]-1,5,9-triazacyclododecan-1-yl]sulfonyl}-N,N-dimethylaniline hydrochloride], the EC50 in data set [1] and in data set [6] was above 25000 nM each time. Besides, the “Liver Microsome Stability-% Left … (%) Monkey” value in data set [2] worked out at 38%. In addition, the “Liver Microsome Stability-% Left … (%) Rat” value in data set [3] was found to be 54%. Also, in data set [4], the “Liver Microsome Stability-% Left … (%) Mouse” value is 43.8%. The IC50 was 12700 nM in data set [5] and 132 nM in data set [7]. For the same compound, the “Liver Microsome Stability-% Left … (%) Human” value in data set [8] was 47.6%.
With `C=C1CN(S(=O)(=O)c2ccc(N(C)C)cc2)CCCN(CC2CCCCC2)CCCN(S(=O)(=O)N2CCc3cc(Br)ccc3C2)C1` [A60, 4-({5-[(6-bromo-1,2,3,4-tetrahydroisoquinolin-2-yl)sulfonyl]-9-(cyclohexylmethyl)-3-methylidene-1,5,9-triazacyclododecan-1-yl}sulfonyl)-N,N-dimethylaniline], the concentration for a half-maximal effect (EC50) in data set [1] was above 25000 nM; in data set [6] it was 1480 nM. Also, the “Liver Microsome Stability-% Left … (%) Monkey” value in data set [2] is listed as 38.7%. The “Liver Microsome Stability-% Left … (%) Rat” value in data set [3] is on record as 50.3%. Moreover, the “Liver Microsome Stability-% Left … (%) Mouse” value in data set [4] came to 60.8%. The IC50 in data set [5] was determined as 886 nM; in data set [7], 18.5 nM. The “Liver Microsome Stability-% Left … (%) Human” value in data set [8] was 46.7%.
Consider `C=C1CN(S(=O)(=O)c2ccc(N(C)C)cc2)CCCN(CC2CCCCC2)CCCN(S(=O)(=O)N2CCC(c3ncccn3)CC2)C1` [A81, 4-{[9-(cyclohexylmethyl)-3-methylidene-5-{[4-(pyrimidin-2-yl)piperidin-1-yl]sulfonyl}-1,5,9-triazacyclododecan-1-yl]sulfonyl}-N,N-dimethylaniline], for which the EC50 in data set [1] and in data set [6] was above 25000 nM each time. For the same compound, in data set [2], the “Liver Microsome Stability-% Left … (%) Monkey” value is reported as 0.03%. The “Liver Microsome Stability-% Left … (%) Rat” value in data set [3] worked out at 0.12%. For the same compound, in data set [4], the “Liver Microsome Stability-% Left … (%) Mouse” value is listed as 0.12%. Further, the results for the IC50 in data set [5] and in data set [7] were above 25000 nM and 477 nM, respectively. Further, the “Liver Microsome Stability-% Left … (%) Human” value in data set [8] was found to be 0.2%.
Consider `O=S(=O)(c1ccccc1)N1CCCN(CC2CCCCC2)CCCN(S(=O)(=O)N2CCCCC2)CC2(CC2)C1` [A34, 5-(benzenesulfonyl)-9-(cyclohexylmethyl)-13-(piperidine-1-sulfonyl)-5,9,13-triazaspiro[2.11]tetradecane], for which the EC50 in data set [1] and in data set [6] was above 25000 nM each time. Moreover, the “Liver Microsome Stability-% Left … (%) Monkey” value in data set [2] is recorded as 0.09%. Moreover, the “Liver Microsome Stability-% Left … (%) Rat” value in data set [3] is 0.12%. For the same compound, in data set [4], the “Liver Microsome Stability-% Left … (%) Mouse” value is 0.24%. Further, the IC50 in data set [5] and in data set [7] was above 25000 nM in each case. Also, the “Liver Microsome Stability-% Left … (%) Human” value in data set [8] came out at 0.03%.
